Reference: US5891913A, “Ophthalmic and aural compositions containing diclofenac potassium” (priority 1994, dated 1999)
Entries after “also recorded” stand apart in the source; their conditions may differ.

How the values were obtained:
[1] = Lens penetration and ocular distribution of 14-C labelled eye drops after multiple topical ocular administration; type: in vivo, chinchilla pigmented rabbits
Description: In a first animal model, the ocular distribution and lens penetration of diclofenac potassium and diclofenac sodium is determined after multiple topical ocular administration of a corresponding eye drop composition. […] At regular intervals post-instillation (0.5, 1.5, 2.0 hours), the animals are sacrificed and both eyes are removed. Said eyes are microdissected and the ocular distribution of the radioactivity is measured by a standard scintillation beta counting method.
Lens penetration and ocular distribution of diclofenac potassium and diclofenac sodium were determined after multiple topical ocular administration of corresponding 14-C labelled eye drop composition into the conjunctival sac of the right eye of pigmented rabbits.
At 0.5, 1.5, 2 hours post-instillation, 5 animals for each time-point and each treatment group were sacrificed and the radioactivity content (in ng-Eq/g of structure) in the cornea, aqueous humor, iris-ciliary body, vitreous, whole blood and plasma was measured. At 2 hours post-instillation, the left eyes were removed and the ocular distribution was measured by a standard scintillation beta counting method. The right lenses were used for autoradiography.
The areas under the curve (AUC: ng-Eq/g of structure versus time) were calculated and statistically compared.

[2] = tested on: eye; experiment: Pharmacological studies: topical (ocular) tolerance, efficacy, onset and duration of action
[3] = tested on: uveitis; experiment: Uveitis models in rabbits (all the aforementioned animal models: arachidonic acid, argon laser iris photocoagulation, paracentesis); type: in vivo, pigmented rabbits; settings: compared to diclofenac sodium
Description: Uveitis is induced in said model by an argon laser iris photocoagulation in pigmented rabbits. Said iris photocoagulation is induced by 500 μm argon laser burns (power 750 mW, duration 0.1 sec). The inflammatory processes resulting therefrom are measured every 30 minutes after the laser induced photo-coagulation, by using the laser cell flare meter (LCFM) technique.
In addition to the non invasive LCFM evaluation of the above mentioned animal model, an invasive evaluation is carried out. Therefore the rabbits are sacrificed one hour and in regular intervals after which said eyes have been subjected to the traumatic uveitis by photocoagulation, and the aqueous humor of said rabbit eyes is sampled. The aqueous protein levels, cell counts and prostaglandins (PGE2, PGD2, 6-keto PGF1α) which represent the degree of an inflammation are biochemically investigated and quantified.
Another animal model is used for the induction of a traumatic uveitis. It is the induction of a uveitis by the paracentesis of the anterior chamber of the rabbit eye. In analogy to the previously described laser induced uveitis model, drugs to be tested, are again administred prior to the paracentesis challenge. […] The aqueous protein levels are again analyzed, quantified and then correlated with the degree of an inflammation.

[4] = tested on: arachidonic acid induced uveitis; experiment: Arachidonic acid induced uveitis, aqueous flare by laser cell flare meter (LCFM)

In the case of O=C(O)Cc1ccccc1Nc1c(Cl)cccc1Cl [diclofenac potassium, potassium 2-[(2,6-dichlorophenyl)amino]-phenyl acetate], the “ocular penetration / levels of radioactivity (in words)” value ([1]; in comparison to diclofenac sodium, acetate) is reported as “much superior; also recorded: clearly displayed higher levels of radioactivity”, the “ocular distribution, order of concentrations (in words)” value ([1]; rabbit, in vivo) is reported as “highest concentrations are found in the cornea, and in descending order in the aqueous humor, in the iris ciliary body and in the vitreous” and the “duration of action (in words)” value ([2]; e.g. in the eye) is reported as “long lasting duration of action”. The “onset of action (in words)” value ([2]; e.g. in the eye) was “surprisingly short onset of action”, the “topical tolerance, e.g. ocular tolerance, and efficacy (in words)” value ([2]; in comparison to diclofenac sodium) was “much better topical tolerance, e.g. ocular tolerance, and efficacy” and the “efficacy in all the aforementioned animal models (in words)” value [3] was “better efficacy”. For the same compound, the “efficacy / degree of inflammation (in words)” value ([4]; 0.05% diclofenac potassium versus 0.1% diclofenac sodium) was “almost totally suppressed” and the “fold efficacy of diclofenac sodium” value ([4]; taking into account 0.1% versus 0.05% drug concentration) was “more than five fold”.
